Experimental data taken from US20250057959A1, “PHOSPHANE GOLD(I)-N-HETEROCYCLIC CARBENE COMPLEXES FOR TREATING CANCER” (KING FAHD UNIVERSITY OF PETROLEUM AND MINERALS, priority 2023, published 2025).

Assays:
Format in all cases: cell-based, human
A2780 = experiment: MTT cell viability assay, A2780; conditions: for IC50: 72 hours treatment, MTT; for Activity compared with cisplatin or auranofin in A2780 cells: comparison of IC50, Table 8
Description: (§1) Human epithelial ovarian cancer A2780 cell line and its cisplatin-resistant clone A2780cis were obtained from Sigma-Aldrich (Milano, Italy). SKOV3 (HTB-77) cells were from the American Type Culture Collection (ATCC). The two cell lines were selected to reflect the two different stages of OvCa and different sensitivity to cisplatin. A2780 cell lines were derived from the ovarian tumor tissue of an untreated patient, while SKOV3 was from the ascitic fluids (after metastasis). Cells were authenticated in the laboratory using PowerPlex 16 HS system (Promega) and GeneMapper ID version 3.2.1 to identify DNA short tandem repeats. Cell lines were cultured in RPMI-1640 medium containing 10% fetal bovine serum (FBS) (Gibco, Thermo Fisher Scientific, U.S.A), 1% (v/v) of penicillin (10,000 units/mL)-streptomycin (10 mg/mL), and 1% (v/v) L-glutamine (200 mM) (all from Sigma- Aldrich) at 37° C. in a 5% CO2 fully humidified atmosphere. A2780cis cells were continuously exposed to 1 μM cisplatin to maintain cisplatin resistance. Adipose-derived stem cells (ADSCs) were purchased from Lonza and maintained in mesenchymal-stem-cell growth medium Bulletkit MSCGM (Lonza, Verviers, Belgium).
(§2) 4.0×10^3/mL A2780, A2780cis, and SKOV3 cells were seeded in 96-well microplates in 100 μL of culture medium. Cells were allowed to adhere for 24 hours and then were treated in triplicate with increasing concentrations of gold compounds (0-1 μM). Cisplatin was included as a reference drug. Cell viability was evaluated using 3-(4,5-dimethylthiazol-2-yl)-2,5-diphenyltetrazolium bromide (MTT) assay (Sigma-Aldrich) after 72 hours of treatment. Half maximal inhibitory concentrations (IC50) were calculated using the CalcuSyn software version 2 (Biosoft, Ferguson, MO, USA). Fold resistance was calculated as the ratio of the IC50 of the A2780cis to that of the parental cell line A2780.

A2780cis [1] = experiment: MTT cell viability assay, cisplatin-resistant A2780cis; conditions: for IC50: 72 hours treatment, MTT; for Fold resistance (A2780cis/A2780): IC50 A2780cis/IC50 A2780
Description: Human epithelial ovarian cancer A2780 cell line and its cisplatin-resistant clone A2780cis were obtained from Sigma-Aldrich (Milano, Italy). SKOV3 (HTB-77) cells were from the American Type Culture Collection (ATCC). The two cell lines were selected to reflect the two different stages of OvCa and different sensitivity to cisplatin. A2780 cell lines were derived from the ovarian tumor tissue of an untreated patient, while SKOV3 was from the ascitic fluids (after metastasis). […] Cell lines were cultured in RPMI-1640 medium containing 10% fetal bovine serum (FBS) (Gibco, Thermo Fisher Scientific, U.S.A), 1% (v/v) of penicillin (10,000 units/mL)-streptomycin (10 mg/mL), and 1% (v/v) L-glutamine (200 mM) (all from Sigma- Aldrich) at 37° C. in a 5% CO2 fully humidified atmosphere. […] Cisplatin was included as a reference drug. […] Fold resistance was calculated as the ratio of the IC50 of the A2780cis to that of the parental cell line A2780.

SKOV3 cells = experiment: MTT cell viability assay, SKOV3; conditions: 72 hours treatment
Description: as §1, §2

A2780 and A2780cis cells [2] = experiment: Apoptosis by flow cytometry (annexin-V/7AAD, caspase-3,7, BAX, Bcl-2); conditions: 48 hours; complex 6 and auranofin at IC50 and IC75, cisplatin 0.15 μM and 0.50 μM
Protocol: (§3) Results were detected by flow cytometry on a BD FACSCanto II flow cytometer. Data were analyzed using BD FACSDiva version 8.0.1 software (BD Biosciences) unless otherwise indicated. To evaluate apoptosis, tumor cells were treated for 48 hours and then stained for 15 minutes with FITC annexin-V (Thermo Fisher Scientific) and 7AAD (BD Pharmingen). […] For B-cell lymphoma/leukemia-2 (Bcl-2) and Bcl-2 associated x protein (Bax) evaluation, cells were fixed and permeabilized using FIX & PERM cell fixation and cell permeabilization kit (Life Technologies). […] The distribution of cells in different cell cycle phases was quantified using ModFit LT 4.0 software (Verity Software House, Topsham, ME, USA).

A2780 and A2780cis cells [3] = experiment: mitROS generation (MitoSOX red), flow cytometry
Protocol: as §3

A2780 and A2780cis cells [4] = experiment: DNA double-strand breaks, γ-H2AX western blot
Protocol: Whole-cell lysates were prepared using cold RIPA buffer [150 mM NaCl, 50 mM Tris-HCl (pH 8), 0.1% SDS, 1% Igepal, and 0.5% desoxycholate sodium] containing a protease inhibitor cocktail (Roche Diagnostics S.p.a., Milan, Italy), phosphatase inhibitors 1 mM Na3VO4 and 1 mM NaF (Sigma-Aldrich). Protein concentrations were determined using the BioRad protein assay (Bio-Rad Laboratories, Inc., CA, USA). Equal amounts of proteins were mixed with Laemmli buffer, separated in 4-20% SDS-PAGE (Criterion Precast Gel, BioRad), and blotted onto a nitrocellulose membrane (Amersham, GE Healthcare). Membrane strips were blocked with EveryBilot blocking buffer (Bio-Rad) and incubated at 4° C. overnight with primary antibodies probed with the appropriate antibodies (Table 2) and developed using Immobilon Western chemioluminescent HRP substrate. Images were acquired using a ChemiDoc XRS system (Bio-Rad).

A2780 cells [5] = experiment: Cell cycle analysis (PI, flow cytometry), A2780; conditions: for Effect on cell cycle phases: A2780, 24 hours, auranofin 0.5 μM (IC50), cisplatin 0.50 μM
Protocol: as §3

A2780cis [6] = experiment: Cell cycle analysis (PI, flow cytometry), A2780cis; conditions: 24 hours
Protocol: as §3

SKOV3-MCTSs = experiment: SKOV3-MCTS spheroid volume
Protocol: To generate single spheroids with defined size, 1.0×10^3/mL SKOV3 cells were seeded 4 days under nonadherent conditions in U-bottom 96-well plates coated twice with 20 mg/mL of poly(2-hydroxyethyl methacrylate) (poly-HEMA; Sigma) in 95% ethanol. Spheroid size was measured at days 0, 3, and 7 after drug treatment initiation using an inverted microscope (Eclipse TS/100, Nikon, Tokyo, Japan) with photomicrographic systems DS camera control unit DS-L2. Spheroid volumes were calculated using the formula (width^2×length×3.14)/6.

A2780 cells [7] = experiment: ROS generation (MitoSOX red), flow cytometry, A2780; conditions: cisplatin 0.50 μM; from 6.4%
Protocol: 2.0×10^5/mL A2780 and A2780cis cells were seeded in 6-well plates in complete medium and treated with complex 6 (0.15 μM and 0.5 μM). Results were detected by flow cytometry on a BD FACSCanto II flow cytometer. Data were analyzed using BD FACSDiva version 8.0.1 software (BD Biosciences) unless otherwise indicated. To evaluate apoptosis, tumor cells were treated for 48 hours and then stained for 15 minutes with FITC annexin-V (Thermo Fisher Scientific) and 7AAD (BD Pharmingen). […] For B-cell lymphoma/leukemia-2 (Bcl-2) and Bcl-2 associated x protein (Bax) evaluation, cells were fixed and permeabilized using FIX & PERM cell fixation and cell permeabilization kit (Life Technologies). For ROS generation, cells were stained with 5 μM MitoSOX red mitochondrial superoxide indicator (ThermoFisher Scientific) in a working solution for 30 minutes at 37° C. Cell cycle analysis was performed after 24 hours treatment with complex 6. Cells were harvested, fixed in cold 70% ethanol for 15 minutes, and stained with propidium iodide (PI) solution ([…] PI, 0.1% NP-40, 100 µg/mL PureLink RNase A, 0.1% sodium citrate) for 1 hour. The distribution of cells in different cell cycle phases was quantified using ModFit LT 4.0 software (Verity Software House, Topsham, ME, USA).

## CC[PH](CC)(CC)[Au][S][C@@H]1O[C@H](COC(C)=O)[C@@H](OC(C)=O)[C@H](OC(C)=O)[C@H]1OC(C)=O [Auranofin, (2,3,4,6-tetra-O-acetyl-L-thio-β-D-glycopyranosato-S-)-(triethylphosphane)gold(I), reference compound]
A2780
  IC50: 510 ± 70 nM
A2780; listed as auranofin
  IC50: 500 nM
A2780cis [1]
  IC50: 1910 ± 220 nM
  Fold resistance (A2780cis/A2780): 3.7
A2780cis [1]; listed as auranofin
  IC50: 1900 nM
SKOV3 cells
  IC50: 2300 nM
A2780 and A2780cis cells [2]
  Apoptosis (annexin-V / 7AAD positive cells): less active in inducing apoptosis in cisplatin-resistant A2780cis than in A2780 cells
A2780 and A2780cis cells [3]
  mitROS generation: induced ROS generation
A2780 and A2780cis cells [4]
  DNA double-strand breaks (γH2AX): induced
A2780 cells [5]; A2780, 0.8 μM (IC75), 24 hours
  sub-G0/G1 phase (DNA fragmentation): 11%
A2780 cells [5]
  Effect on cell cycle phases: decreased the G1 phase
A2780cis [6]; 2.5 μM (IC75)
  sub-G0/G1 phase (DNA fragmentation): 1.7%
A2780cis [6]
  Effect on cell cycle phases: slightly decreased the G1 phase and increased the S phase
SKOV3-MCTSs; 1 μM
  Effect on SKOV3-MCTSs at 1 μM: did not reduce SKOV3-MCTS volume
SKOV3-MCTSs; 72 hours
  Concentration at which SKOV3-MCTS growth inhibition was seen: higher than 5 μM

## CC(C)c1cccc(C(C)C)c1-n1ccn(-c2c(C(C)C)cccc2C(C)C)[c]1=[Au+][PH](c1ccccc1)(c1ccccc1)[C@@H]1CCCC[C@H]1N.F[P-](F)(F)(F)(F)F [Complex 2, [Au(IPr)(C18H22NP)] PF6]
A2780
  IC50: 500 ± 40 nM
  Activity compared with cisplatin or auranofin in A2780 cells: more active than cisplatin
A2780cis [1]
  IC50: 800 ± 40 nM
  Fold resistance (A2780cis/A2780): 1.6

## N.N.[Cl][Pt][Cl] [Cisplatin, reference compound]
A2780
  IC50: 1500 nM
A2780cis [1]
  IC50: 10400 nM
  Fold resistance (A2780cis/A2780): 6.93
SKOV3 cells
  IC50: 5400 nM
A2780 and A2780cis cells [2]
  Apoptosis (annexin-V / 7AAD positive cells): did not induce apoptosis
A2780 cells [7]
  ROS generation (positive cells): 17.4%
A2780 and A2780cis cells [4]
  DNA double-strand breaks (γH2AX): did not induce
A2780 cells [5]
  Effect on cell cycle phases: slight increase of the G2/M phase
SKOV3-MCTSs; 1 μM, 7 days
  Decrease of SKOV3-MCTS growth with respect to control: 16%

## CC(C)c1cccc(C(C)C)c1-n1ccn(-c2c(C(C)C)cccc2C(C)C)[c]1=[Au+][PH](CCCN)(c1ccccc1)c1ccccc1.F[P-](F)(F)(F)(F)F [Complex 7, [Au(IPr)(C15H18NP)] PF6]
A2780
  IC50: 1420 ± 120 nM
A2780cis [1]
  IC50: 1800 ± 150 nM
  Fold resistance (A2780cis/A2780): 1.27

## CC(C)c1cccc(C(C)C)c1-n1ccn(-c2c(C(C)C)cccc2C(C)C)[c]1=[Au+][PH](CCC#N)(CCC#N)c1ccccc1.F[P-](F)(F)(F)(F)F [Complex 1, [Au(IPr)(C12H13N2P)] PF6]
A2780
  IC50: 2000 ± 190 nM
A2780cis [1]
  IC50: 3550 ± 350 nM
  Fold resistance (A2780cis/A2780): 1.78

## CC(C)c1cccc(C(C)C)c1-n1ccn(-c2c(C(C)C)cccc2C(C)C)[c]1=[Au+][PH](CC(N)C(C)(C)C)(c1ccccc1)c1ccccc1.F[P-](F)(F)(F)(F)F (stereo not shown) [Complex 5, [Au(IPr)(C18H24NP)] PF6]
A2780
  IC50: 750 ± 70 nM
  Activity compared with cisplatin or auranofin in A2780 cells: more active than cisplatin
A2780cis [1]
  IC50: 920 ± 80 nM
  Fold resistance (A2780cis/A2780): 1.23

## CC(C)c1cccc(C(C)C)c1-n1ccn(-c2c(C(C)C)cccc2C(C)C)[c]1=[Au+][PH](c1ccccc1)(c1ccccc1)C(c1ccccc1)C(N)c1ccccc1.F[P-](F)(F)(F)(F)F (stereo not shown) [Complex 3, [Au(IPr)(C26H24NP)] PF6]
A2780
  IC50: 780 ± 60 nM
  Activity compared with cisplatin or auranofin in A2780 cells: more active than cisplatin
A2780cis [1]
  IC50: 1140 ± 100 nM
  Fold resistance (A2780cis/A2780): 1.46

## CC(C)c1cccc(C(C)C)c1-n1ccn(-c2c(C(C)C)cccc2C(C)C)[c]1=[Au+][PH](CC(N)c1ccccc1)(c1ccccc1)c1ccccc1.F[P-](F)(F)(F)(F)F (stereo not shown) [Complex 4, [Au(IPr)(C20H20NP)] PF6]
A2780
  IC50: 820 ± 50 nM
  Activity compared with cisplatin or auranofin in A2780 cells: more active than cisplatin
A2780cis [1]
  IC50: 1170 ± 150 nM
  Fold resistance (A2780cis/A2780): 1.43
